# Laboratory results taken from patent US20240300951A1, “Pyrazolopyridinone Compounds” (BeiGene Ltd., priority 2021, published 2024).
# pIC50: −log10 of the molar value.
# How the values were obtained:
# [1] = biological target: T1, DGKζ (Homo sapiens, UniProt Q13574); assay: Biochemical DGK IC50 assay, DGKζ ADP-Glo assay; details: full length DGKζ 0.5 nM, ATP 140 μM, DAG 80 μM
# T1 construct: His (N); TEV cleavage site (N); made in house; host or cells: Sf9 insect cells (baculovirus, Bac-to-Bac)
# Description: (§1) Enzymatic reactions of DGKζ, DGKα and DGKδ were performed using ADP-Glo assay with lipid micelle substrate. […] Full length DGKα (D21-10BG, SignalChem) and full length DGKδ (D23-10G, SignalChem) were purchased. Lipid micelle was prepared by dissolving DAG (Sigma, 317505-10MG) and PS (Sigma, P7769-100MG) with chloroform which was furtherly removed by rotary evaporation. The resulted product was resuspended in buffer containing 25 mM HEPES pH 7.0, 0.5 mM EDTA and 160 mM Octyl β-D glucopyranoside by vigorous mixing and ultrasonic (IID, Scientz)
# (§2) The ranges of compounds final concentration were 1.55-10000 nM or 23.3-150000 nM. 3 μL 2× enzyme solution was added to wells.
# Human His-TEV-DGK-zeta-pFastBac1 and human baculovirus samples was generated using the Bac-to-Bac baculovirus expression system (Invitrogen) according to the manufacturer's protocol. The DNA used for expression of DGK-zeta, have SEQ ID Nos: 1. Baculovirus amplification was achieved using infected SF9 cells at 1:2000 virus/cells ratios, and grown for 96 hours at 27° C. post-transfected.
# The expression scaled up for each protein was carried out in the […] from CORNING. 4 L of 3×10^6 cells/mL Sf9 cells (Expression System, Invitrogen) grown in SF900™ II SFM insect medium (Expression System) was infected with virus stock at 1:200 virus/cells ratio, and grown for 48 hours at 27° C. post-transfection. The infected cell culture was harvested by centrifugation at 6000 rpm for 15 min 4° C. in a SORVALL LYNX6000 centrifuge. The cell pellets were stored at −80° C.
# Full length human DGK produced as described above, was purified from Sf9 baculovirus-infected insect cell paste. The cells were lysed using sonication method, and the lysates were clarified by centrifugation.
# [2] = biological target: T2, DGKα (Homo sapiens, UniProt P23743); assay: Biochemical DGK IC50 assay, DGKα ADP-Glo assay; details: full length DGKα 7.5 nM, ATP 140 μM, DAG 80 μM
# T2 construct: Full length DGKα (D21-10BG, SignalChem); purchased SignalChem D21-10BG
# Description: as §1, §2
# T2 sequence (P23743 whole entry): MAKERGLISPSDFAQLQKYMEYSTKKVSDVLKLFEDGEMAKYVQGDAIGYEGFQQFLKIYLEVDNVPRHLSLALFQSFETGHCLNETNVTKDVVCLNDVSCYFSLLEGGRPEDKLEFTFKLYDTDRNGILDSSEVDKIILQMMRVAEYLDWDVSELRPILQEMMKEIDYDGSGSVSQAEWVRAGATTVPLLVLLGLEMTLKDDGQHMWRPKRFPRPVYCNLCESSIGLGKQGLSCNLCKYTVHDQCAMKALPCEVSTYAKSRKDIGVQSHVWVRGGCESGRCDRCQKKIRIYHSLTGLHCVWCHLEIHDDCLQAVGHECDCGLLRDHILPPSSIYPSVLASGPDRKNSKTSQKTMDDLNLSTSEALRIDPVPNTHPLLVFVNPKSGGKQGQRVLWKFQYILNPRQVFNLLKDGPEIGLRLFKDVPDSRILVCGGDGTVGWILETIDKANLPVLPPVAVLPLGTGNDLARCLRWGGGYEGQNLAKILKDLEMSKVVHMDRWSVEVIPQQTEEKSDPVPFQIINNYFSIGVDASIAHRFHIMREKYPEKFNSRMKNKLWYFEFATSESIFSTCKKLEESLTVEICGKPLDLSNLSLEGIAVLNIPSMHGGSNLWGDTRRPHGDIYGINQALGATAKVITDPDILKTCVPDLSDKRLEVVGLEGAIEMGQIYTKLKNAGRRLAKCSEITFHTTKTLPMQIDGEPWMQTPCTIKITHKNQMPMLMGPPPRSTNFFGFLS
# T1 sequence (Q13574 1-929 isoform Q13574-4): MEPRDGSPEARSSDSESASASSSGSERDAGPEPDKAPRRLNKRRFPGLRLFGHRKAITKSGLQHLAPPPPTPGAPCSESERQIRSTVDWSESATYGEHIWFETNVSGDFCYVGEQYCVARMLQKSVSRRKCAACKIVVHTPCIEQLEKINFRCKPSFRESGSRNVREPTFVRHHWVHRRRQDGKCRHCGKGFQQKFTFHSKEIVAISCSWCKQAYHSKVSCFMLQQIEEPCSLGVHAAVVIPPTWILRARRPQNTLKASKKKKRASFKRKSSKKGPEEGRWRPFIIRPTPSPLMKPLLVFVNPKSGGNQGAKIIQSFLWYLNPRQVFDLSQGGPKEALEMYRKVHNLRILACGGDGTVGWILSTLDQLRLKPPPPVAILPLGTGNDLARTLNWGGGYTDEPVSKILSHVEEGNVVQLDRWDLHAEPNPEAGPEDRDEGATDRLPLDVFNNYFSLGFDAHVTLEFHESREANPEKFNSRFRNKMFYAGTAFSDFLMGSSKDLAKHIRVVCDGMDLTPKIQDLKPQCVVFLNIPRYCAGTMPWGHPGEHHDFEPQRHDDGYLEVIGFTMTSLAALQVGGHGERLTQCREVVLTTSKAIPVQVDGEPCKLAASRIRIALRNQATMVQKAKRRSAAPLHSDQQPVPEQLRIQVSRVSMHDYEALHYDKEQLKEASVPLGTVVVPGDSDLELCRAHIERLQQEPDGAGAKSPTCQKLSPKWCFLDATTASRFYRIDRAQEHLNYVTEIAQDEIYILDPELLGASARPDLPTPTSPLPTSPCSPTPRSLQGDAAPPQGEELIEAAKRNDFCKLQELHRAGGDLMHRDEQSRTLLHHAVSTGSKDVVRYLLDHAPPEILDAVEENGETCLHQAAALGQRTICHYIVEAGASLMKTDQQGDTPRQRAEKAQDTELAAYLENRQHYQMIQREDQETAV
pIC50 [1],pIC50 [2],Compound
5.44,< 5.00,"CC[C@@H]1CN(c2cc(=O)[nH]c3cn(CC#N)nc23)[C@@H](C)CN1C(C)c1ccc2nccnc2c1 (single isomer, unassigned) [Compound A177b]"
6.78,< 3.82,"CC[C@@H]1CN(c2cc(=O)n(C)c3cn(CC#N)nc23)[C@@H](C)CN1C(C)c1ccc(F)cc1C(F)(F)F (single isomer, unassigned) [Compound A218a]"
5.36,< 5.00,"CC[C@H]1CN(C(C)c2ccc(F)cc2C(F)F)[C@H](CC)CN1c1cc(=O)n(C)c2cn(CC#N)nc12 (single isomer, unassigned) [Compound A172a]"
5.04,< 5.00,"7-((2S,5R)-4-(1-(1-(2,2-difluoroethyl)-1H-pyrazol-5-yl)ethyl)-2,5-diethylpiperazin-1-yl)-4-methyl-2,4-dihydro-5H-pyrazolo[4,3-b]pyridin-5-one [Compound A228]"
< 5.00,–,"CC[C@H]1CN(C(C)c2ccc3nccnc3c2)[C@H](CC)CN1c1cc(=O)n(C(C)C)c2cn(CC#N)nc12 (single isomer, unassigned) [Compound A190b]"
5.49,5.92,"CC[C@H]1CN(C(C)c2ccc(C(F)F)nc2)[C@H](CC)CN1c1cc(=O)n(C)c2cn(CC#N)nc12 (single isomer, unassigned) [Compound A351b]"
6.55,6.36,"CC[C@H]1CN(C2CCCc3ccccc32)[C@H](CC)CN1c1cc(=O)n(C)c2cn(CC#N)nc12 (single isomer, unassigned) [Compound A146a]"
5.62,< 5.00,"CC#CCn1cc2c(n1)c(N1C[C@@H](CC)N(C(C)c3ccc(F)cc3C(F)(F)F)C[C@@H]1CC)cc(=O)n2C (single isomer, unassigned) [Compound A238a]"
6.07,5.92,"CC[C@H]1CN(C(C)c2ccc(C3CC3)cc2F)[C@H](CC)CN1c1cc(=O)n(C)c2cn(CC#N)nc12 (single isomer, unassigned) [Compound A72a]"
5.56,5.23,"CC[C@H]1CN(C2CCOc3ccccc32)[C@H](CC)CN1c1cc(=O)n(C)c2cn(CC#N)nc12 (single isomer, unassigned) [Compound A150a]"
6.76,< 5.00,"CC[C@H]1CN(C(C)c2ccc3nccnc3c2)[C@H](CC)CN1c1cc(=O)n(C(C)C)c2cn(CC#N)nc12 (single isomer, unassigned) [Compound A190a]"
5.55,–,"CC[C@H]1CN(C(C)c2ncccc2OC)[C@H](CC)CN1c1cc(=O)n(C)c2cn(CC#N)nc12 (single isomer, unassigned) [Compound A92b]"
5.65,< 5.00,"COCc1cc(F)ccc1C(C)N1C[C@H](C)N(c2cc(=O)n(C)c3cn(CC#N)nc23)C[C@H]1C (single isomer, unassigned) [Compound A29a]"
5.91,5.04,"CC[C@H]1CN(C(C)c2cccc(C)c2C(F)(F)F)[C@H](CC)CN1c1cc(=O)n(C)c2cn(CC#N)nc12 (single isomer, unassigned) [Compound A110b]"
7.82,7.08,"CC[C@H]1CN(C(C)c2ccc(C3CC3)cc2F)[C@H](CC)CN1c1cc(=O)n(C)c2cn(CC#N)nc12 (single isomer, unassigned) [Compound A72b]"
< 5.00,< 5.00,"CC[C@H]1CN(C(C)c2ncccc2OC)[C@H](CC)CN1c1cc(=O)n(C)c2cn(CC#N)nc12 (single isomer, unassigned) [Compound A92a]"
6.27,7.08,"CC[C@H]1CN(C2CCOc3ccccc32)[C@H](CC)CN1c1cc(=O)n(C)c2cn(CC#N)nc12 (single isomer, unassigned) [Compound A150b]"
6.82,5.94,"CC[C@H]1CN(C(C)c2cccc(C)c2C(F)(F)F)[C@H](CC)CN1c1cc(=O)n(C)c2cn(CC#N)nc12 (single isomer, unassigned) [Compound A110a]"
5.34,5.55,"CC[C@H]1CN(C(C)c2ccc(CN3CCOCC3)cc2)[C@H](CC)CN1c1cc(=O)n(C)c2cn(CC#N)nc12 (single isomer, unassigned) [Compound A383b]"
5.93,–,"CC[C@H]1CN(C(C)c2nc(Cl)cn2CC)[C@H](CC)CN1c1cc(=O)n(C)c2cn(CC#N)nc12 (single isomer, unassigned) [Compound A191b]"
5.17,< 5.00,"CC[C@H]1CN(C(C)c2nc(Cl)cn2CC)[C@H](CC)CN1c1cc(=O)n(C)c2cn(CC#N)nc12 (single isomer, unassigned) [Compound A191a]"
5.35,< 5.00,"CC[C@@H]1CN(c2c(Cl)c(=O)n(C)c3cn(CC#N)nc23)CCN1C(C)c1ccc2nccnc2c1 (single isomer, unassigned) [Compound A162a]"
5.21,4.59,"CC(c1ccc2c(c1)OCC(C)(C)O2)N1C[C@H](C)N(c2cc(=O)n(C)c3cn(CC#N)nc23)C[C@H]1C (single isomer, unassigned) [Compound A46e]"
5.95,4.95,"CC[C@H]1CN(C(C)c2ccc3nc(OC)cnc3c2)[C@H](CC)CN1c1cc(=O)n(C)c2cn(CC#N)nc12 (single isomer, unassigned) [Compound A281b]"
7.68,4.29,"Cc1cnc2ccc([C@H](C)N3C[C@H](C)N(c4cc(=O)n(C)c5cn(CC#N)nc45)C[C@H]3C)cc2n1 (single isomer, unassigned) [Compound A269d]"
7.15,< 3.82,"Cc1c2c(nn1CC#N)c(N1C[C@@H](C)N(C(C)c3ccc(F)cc3C(F)(F)F)C[C@@H]1C)nc(=O)n2C (single isomer, unassigned) [Compound A267b]"
5.92,5.29,"CC[C@@H]1CN(c2c(F)c(=O)[nH]c3cn(CC#N)nc23)[C@@H](C)CN1C(C)c1ccc2nccnc2c1 (single isomer, unassigned) [Compound A194b]"
5.33,< 5.00,"CC[C@H]1CN(C2CCCc3ccccc32)[C@H](CC)CN1c1cc(=O)n(C)c2cn(CC#N)nc12 (single isomer, unassigned) [Compound A146b]"
6.87,5.48,"CC(c1ccc2c(c1)OCC(C)(C)O2)N1C[C@H](C)N(c2cc(=O)n(C)c3cn(CC#N)nc23)C[C@H]1C (single isomer, unassigned) [Compound A46c]"
8.05,4.94,"CC(c1ccc2c(c1)OC(C)(C)CO2)N1C[C@H](C)N(c2cc(=O)n(C)c3cn(CC#N)nc23)C[C@H]1C (single isomer, unassigned) [Compound A46d]"

Compound,pIC50 [1],pIC50 [2]
"COc1cc(F)ccc1C(C)N1C[C@H](C)N(c2cc(=O)n(C)c3cn(CC#N)nc23)C[C@H]1C (stereo partly drawn) [Compound A248, 2-(7-((2S,5R)-4-(1-(2-omethoxy-4-fluorophenyl)ethyl)-2,5-dimethylpiperazin-1-yl)-4-methyl-5-oxo-4,5-dihydro-2H-pyrazolo[4,3-b]pyridin-2-yl)acetonitrile]",6.24,–
"CCC1CN(c2c(C#N)c(=O)n(C)c3cn(CC#N)nc23)CCN1C(C)c1ccc2nccnc2c1 [Compound A169, 2-(cyanomethyl)-7-((2S,5R)-3-ethyl-4-(1-(quinoxalin-6-yl)ethyl)piperazin-1-yl)-4-methyl-5-oxo-4,5-dihydro-2H-pyrazolo[4,3-b]pyridine-6-carbonitrile]",6.15,< 5.00
Cc1nc2ccc(C(C)N3C[C@H](C)N(c4cc(=O)n(C)c5cn(CC#N)nc45)C[C@H]3C)cn2n1 (mixture of isomers) [Compound A321],5.40,–
